Experimental data: patent publication US20160050923A1, “N-SUBSTITUTED ACYL-IMINO-PYRIDINE COMPOUNDS AND DERIVATIVES FOR COMBATING ANIMAL PESTS” (BASF SE, priority 2013, published 2016)

Experiments:
Type in all cases: in vivo
Aphis craccivora = assay: Cowpea aphid (Aphis craccivora) spray test on potted cowpea plants; conditions: 72 h, read-out: mortality in comparison with untreated controls
Description: B.4 Cowpea Aphid (Aphis craccivora)
The active compound was dissolved at the desired concentration in a mixture of 1:1 (vol:vol) distilled water: acetone. Surfactant (Alkamuls® EL 620) was added at a rate of 0.1% (vol/vol). The test solution was prepared at the day of use.
Potted cowpea plants were colonized with approximately 50-100 aphids of various stages by manually transferring a leaf tissue cut from infested plant 24 hours before application. Plants were sprayed after the pest population has been recorded. Treated plants were maintained on light carts at about 28° C. Percent mortality was assessed after 72 hours.

Megoura viciae = assay: Vetch aphid (Megoura viciae) broad bean leaf disk microtiter test; conditions: foliar, 120 h, read-out: mortality in comparison with untreated controls
Description: B.2 Vetch Aphid (Megoura viciae)
For evaluating control of vetch aphid (Megoura viciae) through contact or systemic means the test unit consisted of 24-well-microtiter plates containing broad bean leaf disks.
The compounds were formulated using a solution containing 75% v/v water and 25% v/v DMSO. Different concentrations of formulated compounds were sprayed onto the leaf disks at 2.5 μl, using a custom built micro atomizer, at two replications.
After application, the leaf disks were air-dried and 5-8 adult aphids were placed on the leaf disks inside the microtiter plate wells. The aphids were then allowed to suck on the treated leaf disks and were incubated at about 23±1° C. and about 50±5% relative humidity for 5 days. Aphid mortality and fecundity was then visually assessed.

Nilaparvata lugens = assay: Rice brown plant hopper (Nilaparvata lugens) test on sprayed rice seedlings; conditions: 72 h, read-out: mortality in comparison with untreated controls
Description: B.8 Rice Brown Plant Hopper (Nilaparvata lugens)
(§1) Rice seedlings were cleaned and washed 24 hours before spraying. The active compounds was formulated in 50:50 acetone:water (vol:vol) and 0.1% vol/vol surfactant (EL 620) was added. Potted rice seedlings were sprayed with 5 ml test solution, air dried, placed in cages and inoculated with 10 adults. Treated rice plants were kept at about 28-29° C. and relative humidity of about 50-60%. Percent mortality was recorded after 72 hours.

Nephotettix virescens = assay: Rice green leafhopper (Nephotettix virescens) test on sprayed rice seedlings; conditions: 72 h, read-out: mortality in comparison with untreated controls
Description: B.7 Rice Green Leafhopper (Nephotettix virescens)
as §1, with “compounds were” for “compounds was”, “acetone:water (vol:vol),” for “acetone:water (vol:vol)”

Myzus persicae = assay: Green peach aphid (Myzus persicae) spray test on infested bell pepper plants; conditions: 120 h, read-out: mortality in comparison with untreated controls
Description: B.1 Green Peach Aphid (Myzus persicae)
The active compounds were formulated by a Tecan liquid handler in 100% cyclohexanone as a 10,000 ppm solution supplied in tubes. The 10,000 ppm solution was serially diluted in 100% cyclohexanone to make interim solutions. These served as stock solutions for which final dilutions were made by the Tecan in 50% acetone:50% water (v/v) into 5 or 10 ml glass vials. A nonionic surfactant (Kinetic®) was included in the solution at a volume of 0.01% (v/v). The vials were then inserted into an automated electrostatic sprayer equipped with an atomizing nozzle for application to plants/insects.
Bell pepper plants at the first true-leaf stage were infested prior to treatment by placing heavily infested leaves from the main colony on top of the treatment plants. Aphids were allowed to transfer overnight to accomplish an infestation of 30-50 aphids per plant and the host leaves were removed. The infested plants were then sprayed by an automated electrostatic plant sprayer equipped with an atomizing spray nozzle. The plants were dried in the sprayer fume hood, removed, and then maintained in a growth room under fluorescent lighting in a 24-hr photoperiod at about 25° C. and about 20-40% relative humidity. Aphid mortality on the treated plants, relative to mortality on untreated control plants, was determined after 5 days.

Dichromothrips corbetti = assay: Orchid thrips (Dichromothrips corbetti) floral-immersion test; conditions: 72 h, read-out: mortality in comparison with untreated controls
Description: B.6 Orchid Thrips (Dichromothrips corbetti)
Dichromothrips corbetti adults used for bioassay were obtained from a colony maintained continuously under laboratory conditions. For testing purposes, the test compound is diluted in a 1:1 mixture of acetone:water (vol:vol), plus 0.01% vol/vol Alkamuls® EL 620 surfactant.
Thrips potency of each compound was evaluated by using a floral-immersion technique. Plastic petri dishes were used as test arenas. All petals of individual, intact orchid flowers were dipped into treatment solution and allowed to dry. Treated flowers were placed into individual petri dishes along with about 20 adult thrips. The petri dishes were then covered with lids. All test arenas were held under continuous light and a temperature of about 28° C. for duration of the assay. After 3 days, the numbers of live thrips were counted on each flower, and along inner walls of each petri dish. The percentmortality was recorded 72 hours after treatment.

CSCC(=O)/N=c1\ccccn1Cc1ccc(Cl)nc1 [E1-9, N-[1-[(6-chloro-3-pyridyl)methyl]-2-pyridylidene]-2-methylsulfanyl-acetamide]
≥ 75%: mortality at 500 ppm (Aphis craccivora) | mortality at 2500 ppm (Megoura viciae) | mortality at 500 ppm (Nilaparvata lugens) | mortality at 500 ppm (Nephotettix virescens) | mortality at 2500 ppm (Myzus persicae)

CS(=O)(=O)CC(=O)N=c1ccccn1Cc1ccc(Cl)nc1 [E1-10, N-[1-[(6-chloro-3-pyridyl)methyl]-2-pyridylidene]-2-methylsulfonyl-acetamide]
≥ 75%: mortality at 500 ppm (Aphis craccivora) | mortality at 2500 ppm (Megoura viciae) | mortality at 500 ppm (Nilaparvata lugens) | mortality at 500 ppm (Nephotettix virescens) | mortality at 500 ppm (Dichromothrips corbetti) | mortality at 2500 ppm (Myzus persicae)
